Experimental data published in patent US20240101535A1, “DIHYDROISOQUINOLINONE DERIVATIVE AND APPLICATION THEREOF” (ETERN BIOPHARMA (SHANGHAI) CO., LTD., priority 2020, published 2024).
Counter-ions that a name gives are not always drawn. Like-named read-outs stand apart in the source and are kept apart here.

Legend:
[1] = test system: Jurkat cells; assay: Jurkat cell proliferation inhibition experiment (CellTiter-Glo); assay type: cell-based; settings: for IC50: Homo sapiens, 144 h, Jurkat cells, 6 days, CellTiter-Glo, read-out: Jurkat cell proliferation inhibitory activity IC50; for selectivity: ratio of Jurkat cell IC50 to MV4-11 cell IC50
Experimental: Test Example 3: Jurkat (ATCC: TIB-152) Cell Proliferation Inhibition Experiment
ATP in living cells was quantitatively detected by CellTiter-Glo (Promega-G7573) Luminescence Cell Viability Assay Kit to determine the effect of the compounds to be tested on cell proliferation. • Step 1: Jurkat cells were seeded in 96-well plates (Greiner-655098) at a density of 1,500 cells per well with a volume of 140 μL per well; Cell culture medium components included RPM11640 (Gibco-A10491-01)+10% FBS (Gibco-10099-141C)+1% Penicillin-Streptomycin (5,000 U/mL, Gibco-15070-063). • Step 2: On the day of cell seeding, the cells were treated with the compound to be tested. The compound to be tested was diluted with a 3-fold gradient, and a total of 9 concentration gradients were set. DMSO (Sigma, D2650) with 0.5% final concentration or a DMSO solution containing the compound to be tested was added per well with 2 or 3 replicate wells at each concentration point. The plates were incubated at 37° C. in a 5% CO2 incubator (Thermo Scientific Steri-Cycle 371) for 6 days. • Step 3: The cell viability in the control and treatment groups was detected with CellTiter-Glo Luminescent Cell Viability Assay Kit. 50 μL of CellTiter-Glo was added per well, mixed well, and incubated for 15 min at room temperature protected from light. According to the kit instructions, the chemiluminescence signal was read using a multifunctional microplate reader (EnVision, PerkinElmer).
The inhibition percentage (%) of the compound at each concentration point was calculated by the following formula:
Inhibition Percentage (%)=(1−signal value of the group treated with the compound/signal value of the group treated with DMSO)*100.
The value of cell proliferation semi-inhibitory concentration IC50 was calculated using GraphPad Prism software, and the results are shown in Table 3. The ratio of Jurkat cell proliferation inhibitory activity IC50 to MV4-11 cell proliferation inhibitory activity IC50 may be further calculated to obtain selectivity.

[2] = test system: MV4-11 cells; assay: MV4-11 cell proliferation inhibition experiment (CellTiter-Glo); assay type: cell-based; settings: 6 days
[3] = biological target: WDR5 protein (22-334aa) with MLL1 polypeptide (3672-3773aa) (Homo sapiens, UniProt P61964); assay: WDR5-MLL PPI inhibitory activity test (HTRF); assay type: binding; settings: His-tagged WDR5 and biotin-tagged MLL1 polypeptide
Outline: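 His-tagged WDR5 (42 nM working solution) was preincubated with compound for 60 min at room temperature in 25 mM HEPES pH 7.5, 100 mM NaCl, 0.05% Tween 20 (final DMSO 0.5%). Biotin-MLL1 peptide (333 nM working solution) was then added for 10 min, followed by Eu-cryptate/streptavidin-APC detection for 60 min. The 665/620 nm ratio gave IC50.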

[4] = Homo sapiens, 144 h, read-out: MV4-11 cell proliferation inhibitory activity IC50
[5] = Homo sapiens, 144 h, read-out: cell proliferation inhibitory activity

IC50 [1] | IC50 [2, 4] | IC50 [2, 5] | IC50 [3] | IC50 ([2]; read-out: cell proliferation inhibitory activity) | Compound | selectivity [1]
1400 nM | 3 nM | < 50 nM | < 20 nM | – | CCOc1cc([C@H](C)N2C[C@@]3(CC3(F)F)c3c(CN(C)C)cc(Cn4ccnc4NC)cc3C2=O)ncc1C#N (stereo in doubt) [Compound 94, 6-(-1-(5′-((dimethylamino)methyl)-2,2-difluoro-7′-((2-(methylamino)-1H-imidazol-1-yl)methyl)-1′-one-1′H-spiro[cyclopropan-1,4′-isoquinoline]-2′(3′H)-yl)ethyl)-4-ethoxynicotinonitrile formate salt] | 466 time
6800 nM | 19 nM | 50 to 200 nM | < 20 nM | – | CCOc1cc([C@H](C)N2CC3(CC3)c3c(CN(C)C)cc(Cn4ccnc4NC)cc3C2=O)ncc1F [Compound 1, (S)-5′-((dimethylamino)methyl)-2′-(1-(4-ethoxy-5-fluoropyridine-2-yl)ethyl)-7′-((2-(methylamino)-1H-imidazol-1-yl)methyl)-2′,3′-dihydro-1′H-spiro[cyclopropan-1,4′-isoquinoline]-1′-one] | 357 time
1400 nM | 4 nM | < 50 nM | < 20 nM | – | CCOc1cc([C@H](C)N2CC3(CCC3)c3c(CN(C)C)cc(Cn4ccnc4NC)cc3C2=O)ncc1C#N [Compound 23, (S)-6-(1-(5′-((dimethylamino)methyl)-7′-((2-(methylamino)-1H-imidazol-1-yl)methyl)-1′-one-1′H-spiro[cyclobutan-1,4′-isoquinoline]-2′(3′H)-yl)ethyl)-4-ethoxynicotinonitrile] | 350 time
3100 nM | 10 nM | < 50 nM | < 20 nM | – | CCOc1cc([C@H](C)N2C[C@]3(CC3(F)F)c3c(CN(C)C)cc(Cn4ccnc4NC)cc3C2=O)ncc1F [Compound 91, (S)-5′-((dimethylamino)methyl)-2′-((S)-1-(4-ethoxy-5-fluoropyridine-2-yl)ethyl)-2,2-difluoro-7′-((2-(methylamino)-1H imidazol-1-yl)methyl)-2′, 3′-dihydro-1′H-spiro[cyclopropan-1,4′-isoquinoline]-1′-one] | 310 time
1200 nM | 4 nM | < 50 nM | < 20 nM | – | CCOc1cc([C@H](C)N2CC3(CC(F)(F)C3)c3c(CN(C)C)cc(Cn4ccnc4NC)cc3C2=O)ncc1C#N [Compound 99] | 300 time
1600 nM | 5 nM | < 50 nM | < 20 nM | – | [2H]C([2H])([2H])N(Cc1cc(Cn2ccnc2NC)cc2c1C1(CCC1)CN(C(C)c1cc(OCC)c(C#N)cn1)C2=O)C([2H])([2H])[2H] (centres unmarked) [Compound 100, 6-(1-(5′-((bis(methyl-d3)amino)methyl)-7′-((2-(methylamino)-1H-imidazol-1′-yl)methyl)-1′-oxo-1′H-spiro [cyclobutan-1,4′-isoquinoline]-2′(3′H)-yl)ethyl)-4-ethoxynicotinonitrile] | 320 time
– | – | < 50 nM | < 20 nM | – | [2H]C(C)(c1cc(OCC)c(C#N)cn1)N1CC2(CCC2)c2c(CN(C)C)cc(Cn3ccnc3NC)cc2C1=O (centres unmarked) [Compound 101] | –
– | – | < 50 nM | < 20 nM | – | CNc1nccn1Cc1cc(CN(C)C)c2c(c1)C(=O)N(C(C)c1ccc(F)c(OC)c1)CC21CCC1 (centres unmarked) [Compound 107, 5′-((dimethylamino)methyl)-2′-(1-(4-fluoro-3-methoxyphenyl)ethyl)-7′-((2-(methylamino)-1H-imidazol-1-yl)methyl)-2′,3′-dihydro-1′H-spiro[cyclobutan-1,4′-isoquinoline]-1′-one] | –
– | – | < 50 nM | < 20 nM | – | [2H]C([2H])([2H])C([2H])([2H])Oc1cc(C(C)N2CC3(CCC3)c3c(CN(C)C)cc(Cn4ccnc4NC)cc3C2=O)ncc1C#N (centres unmarked) [Compound 111, 6-(1-(5′-((dimethylamino)methyl)-7′-((2-(methylamino)-1H-imidazol-1-yl)methyl)-1′-oxo-1′H-spiro[cyclobutan-1,4′-isoquinoline]-2′(3′H)-yl)ethyl)-4-(ethoxy-d5)nicotinonitrile] | –
– | – | – | < 20 nM | < 50 nM | (S)-4-ethoxy-6-(1-(7′-((2-(methylamino)-1H-imidazol-1-yl)methyl)-5′-(morpholinomethyl)-1′-one-1′H-spiro[cyclopropan-1,4′-isoquinoline]-2′(3′H)-yl)ethyl)nicotinonitrile [Compound 60] | –
